# From US20230120044A1, “AGROCHEMICAL ADJUVANTS” (Croda International Plc, priority 2020, published 2023)
# Experiments:
# [1] = system: Alternaria infectorium; experiment: Adjuvancy with other fungicides for other fungus, FT3; format: cell-based
# Procedure: (§1) To evaluate the biological spectrum of activity, lamellicolic anhydride adjuvant (Ta) was tested in combination with seven fungicides against six different fungal test organisms belonging to five different genera.
# (§2) Prior to evaluating the adjuvant effect of (Ia), the minimum inhibitory concentration (MIC) for each fungicide against each test organism was determined by measuring growth on agar plates containing decreasing concentrations of fungicide.
# (§3) Once the MIC was determined, adjuvant testing was performed with the concentration of (Ta) fixed at 4 μg/mL and each fungicide at a concentration which inhibited growth of the fungus by 10-20%.
# (§4) Fungal targets are: FT1 —Fusarium solani, FT2 —Fusarium oxysporum, FT3 —Alternaria infectorium, FT4 —Penicillium roqueforti, FT5 —Aspergillus flavus, FT6 —Cladosporium sp.
# (§5) The numbers indicate fold change improvement in fungal growth inhibition relative to the fungal test organisms treated with fungicide and adjuvant vehicle alone. A value of 1 would indicate no effect on fungicidal activity, whilst a value >1 indicates improved fungicidal activity. n.t. indicates not tested.
# [2] = system: Fusarium oxysporum; experiment: Adjuvancy with other fungicides for other fungus, FT2; format: cell-based; conditions: Ia 4 μg/mL + pyraclostrobin 0.01 μg/mL
# Procedure: as §1, §2, §3, §4, §5
# [3] = system: Aspergillus flavus; experiment: Adjuvancy with other fungicides for other fungus, FT5; format: cell-based
# Procedure: as §1, §2, §3, §4, §5
# [4] = system: Penicillium roqueforti; experiment: Adjuvancy with other fungicides for other fungus, FT4; format: cell-based
# Procedure: as §1, §2, §3, §4, §5
# [5] = system: Fusarium solani; experiment: Adjuvancy with other fungicides for other fungus, FT1; format: cell-based; conditions: Ia 4 μg/mL + dimethomorph 12.8 μg/mL
# Procedure: as §1, §2, §3, §4, §5
# [6] = system: B. cinerea; experiment: Adjuvancy with other fungicides for B. cinerea; format: cell-based, Botrytis cinerea
# Procedure: Botrytis cinerea (ATCC 90479) was cultured on potato dextrose agar (PDA) for 7 days with diurnal UV cycles (12 h UV light and 12 h dark). Spores were harvested in a buffered, sterile saline solution (0.9% saline water with 1% Tween 80) and counted using a haemocytometer. The spore suspension was adjusted to a final concentration of 8.5×10^6 spores/mL to create a standardised inoculum. To prepare hyphal fragments for adjuvant testing, 8.5×10^4 spores were used to inoculate 10 mL of potato dextrose broth in a 150×25 mm tube. The tube was incubated at 220 RPM, 22° C. for 48 hours. To create hyphal fragments from the culture, the culture was transferred to a 50 mL plastic conical tube containing approximately 20 sterile 5 mm diameter glass beads and vortexed for 5 min. After vortexing the tube was allowed to stand for 5 min to allow large mycelial clumps to settle and then the top layer containing hyphal fragments was removed and used as inocula for growth inhibition assays. Fungicides and adjuvants were dissolved in methanol and added to molten PDA (˜50° C.) and then the agar was distributed in the wells of 12 well multiwell plates (1 mL/well). The plates were cooled to room temperature and 10 μL of hyphal inoculum was added to the centre of each well. The plates were incubated at 22° C. for 48 hours and then the colony diameter was measured using a digital caliper. The biological growth control consisted of hyphae and vehicle (0.07% methanol), the negative control was media and vehicle (0.07% methanol). To expand the functional characterisation of the lamellicolic anhydride adjuvant (Ia) was tested in combination with seven fungicides belonging to six different fungicide groups as classified by the Fungicide Resistance Action Committee (FRAC Code List 2018). Numbers indicate fold change improvement in fungal growth inhibition relative to the fungal test organisms treated with fungicide and adjuvant vehicle alone. n.t. indicates not tested.
# [7] = system: Cladosporium sp.; experiment: Adjuvancy with other fungicides for other fungus, FT6; format: cell-based; conditions: Ia 4 μg/mL + pyrimethanil 0.006 μg/mL
# Procedure: as §1, §2, §3, §4, §5
# [8] = Ia 4 μg/mL + pyraclostrobin 0.001 μg/mL
# [9] = Ia 4 μg/mL + iprodione 0.0015 μg/mL
# [10] = Ia 4 μg/mL + mancozeb 0.2 μg/mL
smiles,measurement,setting,value
"Cc1cc(O)c2c3c(c(O)cc(O)c13)C(=O)OC2=O [Lam 261 (Ia), Lamellicolic anhydride]",fold change improvement in fungal growth inhibition,[1]; Ia 4 μg/mL + dimethomorph 0.2 μg/mL,1.25
same,fold change improvement in fungal growth inhibition,[1]; Ia 4 μg/mL + mancozeb 0.1 μg/mL,2.45
same,fold change improvement in fungal growth inhibition,[1]; Ia 4 μg/mL + prothioconazole 0.006 μg/mL,1.50
same,fold change improvement in fungal growth inhibition,[1]; [8],1.18
same,fold change improvement in fungal growth inhibition,[2],1.63
same,fold change improvement in fungal growth inhibition,[3]; Ia 4 μg/mL + dimethomorph 12.8 μg/mL,1.27
same,fold change improvement in fungal growth inhibition,[3]; [9],1.72
same,fold change improvement in fungal growth inhibition,[3]; [10],2.01
same,fold change improvement in fungal growth inhibition,[3]; Ia 4 μg/mL + prothioconazole 0.012 μg/mL,1.28
same,fold change improvement in fungal growth inhibition,[4]; Ia 4 μg/mL + captan 0.04 μg/mL,1.17
same,fold change improvement in fungal growth inhibition,[4]; Ia 4 μg/mL + dimethomorph 0.8 μg/mL,1.85
same,fold change improvement in fungal growth inhibition,[4]; [9],1.65
same,fold change improvement in fungal growth inhibition,[4]; [10],1.63
same,fold change improvement in fungal growth inhibition,[4]; Ia 4 μg/mL + prothioconazole 0.00375 μg/mL,1.52
same,fold change improvement in fungal growth inhibition,[4]; [8],1.27
same,fold change improvement in fungal growth inhibition,[4]; Ia 4 μg/mL + pyrimethanil 0.02 μg/mL,1.31
same,fold change improvement in fungal growth inhibition,[5],1.63
same,Fold Change in Growth Inhibition,[6]; Lam 261 (Ia) 1 μg/mL + benomyl 0.0015 μg/mL,16.45
same,Fold Change in Growth Inhibition,[6]; Lam 261 (Ia) 1 μg/mL + captan 0.008 μg/mL,17.25
same,Fold Change in Growth Inhibition,[6]; Lam 261 (Ia) 1 μg/mL + captan 0.04 μg/mL,27.32
same,Fold Change in Growth Inhibition,[6]; Lam 261 (Ia) 1 μg/mL + dimethomorph 0.8 μg/mL,17.72
same,Fold Change in Growth Inhibition,[6]; Lam 261 (Ia) 1 μg/mL + mancozeb 0.1 μg/mL,1.89
same,Fold Change in Growth Inhibition,[6]; Lam 261 (Ia) 1 μg/mL + mancozeb 0.2 μg/mL,2.44
same,Fold Change in Growth Inhibition,[6]; Lam 261 (Ia) 1 μg/mL + metalaxyl 0.8 μg/mL,31.72
same,Fold Change in Growth Inhibition,[6]; Lam 261 (Ia) 1 μg/mL + metalaxyl 1.6 μg/mL,27.22
same,Fold Change in Growth Inhibition,[6]; Lam 261 (Ia) 1 μg/mL + prothioconazole 1.0 μg/mL,5.53
same,Fold Change in Growth Inhibition,[6]; Lam 261 (Ia) 1 μg/mL + tebuconazole 0.00018 μg/mL,15.13
same,Fold Change in Growth Inhibition,[6]; Lam 261 (Ia) 1 μg/mL + tebuconazole 0.00075 μg/mL,9.37
same,Fold Change in Growth Inhibition,"[6]; Lam 261 (Ia) 1 μg/mL, benomyl 0 μg/mL (adjuvant alone)",1.00
same,Fold Change in Growth Inhibition,"[6]; Lam 261 (Ia) 1 μg/mL, captan 0 μg/mL (adjuvant alone)",1.00
same,Fold Change in Growth Inhibition,"[6]; Lam 261 (Ia) 1 μg/mL, dimethomorph 0 μg/mL (adjuvant alone)",1.00
same,Fold Change in Growth Inhibition,"[6]; Lam 261 (Ia) 1 μg/mL, mancozeb 0 μg/mL (adjuvant alone)",1.00
same,Fold Change in Growth Inhibition,"[6]; Lam 261 (Ia) 1 μg/mL, metalaxyl 0 μg/mL (adjuvant alone)",1.00
same,Fold Change in Growth Inhibition,"[6]; Lam 261 (Ia) 1 μg/mL, prothioconazole 0 μg/mL (adjuvant alone)",1.00
same,Fold Change in Growth Inhibition,"[6]; Lam 261 (Ia) 1 μg/mL, tebuconazole 0 μg/mL (adjuvant alone)",1.00
same,Fold Change in Growth Inhibition,[6]; Lam 261 (Ia) 2 μg/mL + benomyl 0.0015 μg/mL,20.43
same,Fold Change in Growth Inhibition,[6]; Lam 261 (Ia) 2 μg/mL + captan 0.008 μg/mL,32.35
same,Fold Change in Growth Inhibition,[6]; Lam 261 (Ia) 2 μg/mL + captan 0.04 μg/mL,30.95
same,Fold Change in Growth Inhibition,[6]; Lam 261 (Ia) 2 μg/mL + dimethomorph 0.4 μg/mL,31.0
same,Fold Change in Growth Inhibition,[6]; Lam 261 (Ia) 2 μg/mL + dimethomorph 0.8 μg/mL,16.06
same,Fold Change in Growth Inhibition,[6]; Lam 261 (Ia) 2 μg/mL + mancozeb 0.1 μg/mL,3.06
same,Fold Change in Growth Inhibition,[6]; Lam 261 (Ia) 2 μg/mL + mancozeb 0.2 μg/mL,2.83
same,Fold Change in Growth Inhibition,[6]; Lam 261 (Ia) 2 μg/mL + metalaxyl 0.8 μg/mL,45.13
same,Fold Change in Growth Inhibition,[6]; Lam 261 (Ia) 2 μg/mL + metalaxyl 1.6 μg/mL,32.46
same,Fold Change in Growth Inhibition,[6]; Lam 261 (Ia) 2 μg/mL + prothioconazole 1.0 μg/mL,26.91
same,Fold Change in Growth Inhibition,[6]; Lam 261 (Ia) 2 μg/mL + tebuconazole 0.00018 μg/mL,21.61
same,Fold Change in Growth Inhibition,[6]; Lam 261 (Ia) 2 μg/mL + tebuconazole 0.00075 μg/mL,9.79
same,Fold Change in Growth Inhibition,"[6]; Lam 261 (Ia) 2 μg/mL, benomyl 0 μg/mL (adjuvant alone)",1.00
same,Fold Change in Growth Inhibition,"[6]; Lam 261 (Ia) 2 μg/mL, captan 0 μg/mL (adjuvant alone)",1.00
same,Fold Change in Growth Inhibition,"[6]; Lam 261 (Ia) 2 μg/mL, dimethomorph 0 μg/mL (adjuvant alone)",1.00
same,Fold Change in Growth Inhibition,"[6]; Lam 261 (Ia) 2 μg/mL, mancozeb 0 μg/mL (adjuvant alone)",1.00
same,Fold Change in Growth Inhibition,"[6]; Lam 261 (Ia) 2 μg/mL, metalaxyl 0 μg/mL (adjuvant alone)",1.00
same,Fold Change in Growth Inhibition,"[6]; Lam 261 (Ia) 2 μg/mL, prothioconazole 0 μg/mL (adjuvant alone)",1.00
same,Fold Change in Growth Inhibition,"[6]; Lam 261 (Ia) 2 μg/mL, tebuconazole 0 μg/mL (adjuvant alone)",1.00
same,fold change improvement in fungal growth inhibition,[7],1.67
